Target: ASK1 (Homo sapiens (Human), UniProt Q99683)
Assay: HTRF KinEASE Assay (TR-FRET, STK3 peptide substrate), inhibition of ASK1
Format: biochemical
Settings: 5 nM ASK1 kinase, 1 μM STK3 peptide substrate, 100 μM ATP, 3 hours; compound 0 to 10 μM
Outline: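 TR-FRET HTRF KinEASE-STK format with an STK3 biotinylated peptide substrate. Signal tracks phosphorylation; IC50 from curve fitting.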

ASK1, sequence (Q99683 whole entry): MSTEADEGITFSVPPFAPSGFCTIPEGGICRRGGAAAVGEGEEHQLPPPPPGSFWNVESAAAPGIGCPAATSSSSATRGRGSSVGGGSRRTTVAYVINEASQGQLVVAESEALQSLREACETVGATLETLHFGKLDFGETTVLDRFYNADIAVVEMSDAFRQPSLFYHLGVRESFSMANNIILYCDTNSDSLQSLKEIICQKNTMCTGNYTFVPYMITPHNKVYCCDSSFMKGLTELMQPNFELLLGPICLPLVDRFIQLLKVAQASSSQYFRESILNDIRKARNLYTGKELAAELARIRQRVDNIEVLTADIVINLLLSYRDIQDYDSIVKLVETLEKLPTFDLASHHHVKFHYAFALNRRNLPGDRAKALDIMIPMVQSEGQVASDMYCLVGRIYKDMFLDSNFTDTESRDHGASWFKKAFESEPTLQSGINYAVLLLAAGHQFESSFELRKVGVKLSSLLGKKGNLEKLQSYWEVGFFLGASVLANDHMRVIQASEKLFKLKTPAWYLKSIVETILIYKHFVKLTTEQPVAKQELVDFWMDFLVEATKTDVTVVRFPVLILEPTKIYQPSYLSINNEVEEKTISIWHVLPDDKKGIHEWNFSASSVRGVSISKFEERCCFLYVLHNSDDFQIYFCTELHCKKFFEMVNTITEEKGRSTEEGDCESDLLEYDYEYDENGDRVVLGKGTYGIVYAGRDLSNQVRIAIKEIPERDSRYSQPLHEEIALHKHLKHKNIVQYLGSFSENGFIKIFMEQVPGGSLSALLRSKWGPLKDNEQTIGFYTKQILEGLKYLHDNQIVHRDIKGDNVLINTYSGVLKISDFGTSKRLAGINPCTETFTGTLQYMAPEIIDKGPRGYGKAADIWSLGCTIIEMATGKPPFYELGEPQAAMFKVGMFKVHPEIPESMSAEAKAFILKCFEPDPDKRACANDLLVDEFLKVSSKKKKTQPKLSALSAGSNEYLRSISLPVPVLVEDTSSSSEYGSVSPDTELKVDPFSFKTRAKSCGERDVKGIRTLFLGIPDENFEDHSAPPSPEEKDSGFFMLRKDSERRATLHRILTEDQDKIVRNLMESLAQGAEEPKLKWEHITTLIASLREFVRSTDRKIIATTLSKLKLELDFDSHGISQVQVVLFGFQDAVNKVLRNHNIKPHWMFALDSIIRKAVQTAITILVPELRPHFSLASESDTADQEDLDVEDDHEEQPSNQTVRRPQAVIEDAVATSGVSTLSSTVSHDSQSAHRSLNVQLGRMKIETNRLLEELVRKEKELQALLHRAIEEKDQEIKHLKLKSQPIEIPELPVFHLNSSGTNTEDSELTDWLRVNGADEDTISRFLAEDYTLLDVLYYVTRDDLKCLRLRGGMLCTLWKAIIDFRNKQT

Structure (SMILES)	IC50 [nM]
CCN(C)C(=O)N1Cc2ccc(C(=O)Nc3cccc(-c4nncn4C(C)C)n3)cc2C1 [Example 5, N2-ethyl-N5-(6-(4-isopropyl-4H-1,2,4-triazol-3-yl)pyridin-2-yl)-N2-methylisoindoline-2,5-dicarboxamide]	100 to 1000
CC(C)n1nnnc1-c1cccc(NC(=O)c2cc3c(cc2F)CCN(S(=O)(=O)C2CC2)C3)n1 [Example 88]	> 1000
CC(C)c1nnnn1-c1cccc(NC(=O)c2cc3c(cc2F)CCN(C(=O)OCc2ccccc2)C3)n1 [Example 83, benzyl 6-fluoro-7-((6-(5-isopropyl-1H-tetrazol-1-yl)pyridin-2-yl)carbamoyl)-3,4-dihydroisoquinoline-2(1H)-carboxylate]	> 1000
CC1NCCc2cc(F)c(C(=O)Nc3cccc(-c4nnnn4C(C)C)n3)cc21 (centres unmarked) [Example 68, 6-fluoro-N-(6-(1-isopropyl-1H-tetrazol-5-yl)pyridin-2-yl)-1-methyl-1,2,3,4-tetrahydroiso-quinoline-7-carboxamide]	100 to 1000
CC(C)N1CCc2cnc(C(=O)Nc3cccc(-c4nnnn4[C@H](C)CO)n3)cc2C1 [Example 135]	10 to 100
CC(=O)OC[C@@H](C)n1nnnc1-c1cccc(NC(=O)c2cc3c(cn2)CCN(C(=O)OC(C)(C)C)C3)n1 [Example 147, tert-butyl (R)-7-((6-(1-(1-acetoxypropan-2-yl)-1H-tetrazol-5-yl)pyridin-2-yl)carbamoyl)-3,4-dihydro-2,6-naphthyridine-2(1H)-carboxylate]	100 to 1000
CC(C)n1nnnc1-c1cccc(NC(=O)c2cc3c(cc2F)CCN(C(=O)N(C)C2CCCC2)C3)n1 [Example 78]	10 to 100
CCOC(=O)N1CCc2ccc(C(=O)Nc3cccc(-c4nncn4C(C)C)n3)cc2C1 [Example 36]	10 to 100
C[C@H](CO)n1nnnc1-c1cccc(NC(=O)c2cc3c(cn2)CCN(C(=O)N(C)C2CCCC2)C3)n1 [Example 184, (R)—N2-cyclopentyl-N7-(6-(1-(1-hydroxypropan-2-yl)-1H-tetrazol-5-yl)pyridin-2-yl)-N2-methyl-3,4-dihydro-2,6-naphthyridine-2,7(1H)-dicarboxamide]	> 1000
CC(C)n1cnnc1-c1cccc(NC(=O)c2ccc3c(c2)CN(C(=O)OC(C)(C)C)CC3)n1 [Example 183a]	> 1000
CCOC(=O)N1Cc2ccc(C(=O)Nc3cccc(-c4nncn4C(C)C)n3)cc2C1 [Example 7, ethyl 5-((6-(4-isopropyl-4H-1,2,4-triazol-3-yl)pyridin-2-yl)carbamoyl)isoindoline-2-carboxylate]	100 to 1000
CC(C)n1nnnc1-c1cccc(NC(=O)c2cc3c(cc2F)CCN(C(=O)OCc2ccccc2)C3)n1 [Example 31]	10 to 100
CC(C)COC(=O)N1CCc2ccc(C(=O)Nc3cccc(-c4nncn4C(C)C)n3)cc2C1 [Example 66]	10 to 100
CC(=O)OC[C@@H](C)n1nnnc1-c1cccc(NC(=O)c2cc3c(cc2F)CCNC3)n1 [Example 81]	> 1000
CC(C)n1nnnc1-c1cccc(NC(=O)c2cc3c(cc2F)CCN(C(=O)N2CCN(C)CC2)C3)n1 [Example 91]	10 to 100
CC(C)n1cnnc1-c1cccc(NC(=O)c2cc3c(cn2)CN(C(=O)OCc2ccccc2)C3)n1 [Example 179, benzyl 6-((6-(4-isopropyl-4H-1,2,4-triazol-3-yl)pyridin-2-yl)carbamoyl)-1,3-dihydro-2H-pyrrolo[3,4-c]pyridine-2-carboxylate]	10 to 100
CC(C)n1cnnc1-c1cccc(NC(=O)c2cc3c(cc2F)CCNC3)n1 [Example 27]	10 to 100
CC(C)n1cnnc1-c1cccc(NC(=O)c2ccc3c(c2)CN(C(=O)c2nccs2)CC3)n1 [Example 32]	10 to 100
CC(C)n1cnnc1-c1cccc(NC(=O)c2ccc3c(c2)CN(S(=O)(=O)CCC(F)(F)F)C3)n1 [Example 4, N-(6-(4-isopropyl-4H-1,2,4-triazol-3-yl)pyridin-2-yl)-2-((3,3,3-trifluoropropyl)sulfonyl)isoindoline-5-carboxamide]	100 to 1000
CC(C)n1nnnc1-c1cccc(NC(=O)c2cc3c(cc2F)CCN(S(=O)(=O)N(C)C)C3)n1 [Example 89]	10 to 100
COCCCN1CCc2ccc(C(=O)Nc3cccc(-c4nncn4C(C)C)n3)cc2C1 [Example 38, N-(6-(4-isopropyl-4H-1,2,4-triazol-3-yl)pyridin-2-yl)-2-(3-methoxypropyl)-1,2,3,4-tetrahydroisoquinoline-7-carboxamide]	100 to 1000

Next, values leading:

IC50 [nM]	Structure (SMILES)
1 to 10	CC(C)n1cnnc1-c1cccc(NC(=O)c2cc3c(cc2F)CCN(S(=O)(=O)N(C)C)C3)n1 [Example 49]
10 to 100	CC(C)n1cnnc1-c1cccc(NC(=O)c2ccc3c(c2)CN(C(=O)OCCF)CC3)n1 [Example 65]
10 to 100	COCCC(=O)N1CCc2cc(F)c(C(=O)Nc3cccc(-c4nnnn4C(C)C)n3)cc2C1 [Example 28]
1 to 10	COCCS(=O)(=O)N1CCc2cnc(C(=O)Nc3cccc(-c4nnnn4C(C)C)n3)cc2C1 [Example 138]
1 to 10	COCCN1CCc2cnc(C(=O)Nc3cccc(-c4nnnn4[C@H](C)CO)n3)cc2C1 [Example 134]
< 1	CCn1cc(CNC(=O)N2CCc3cnc(C(=O)Nc4cccc(-c5nnnn5[C@H](C)CO)n4)cc3C2)cn1 [Example 187]
1 to 10	C[C@H](CO)n1nnnc1-c1cccc(NC(=O)c2cc3c(cn2)CCN(C(=O)N2CCCC2)C3)n1 [Example 144, (R)—N-(6-(1-(1-hydroxypropan-2-yl)-1H-tetrazol-5-yl)pyridin-2-yl)-6-(pyrrolidine-1-carbonyl)-5,6,7,8-tetrahydro-2,6-naphthyridine-3-carboxamide]
10 to 100	CC(C)n1cnnc1-c1cccc(NC(=O)c2ccc3c(c2)CN(C(=O)NC2CCCC2)CC3)n1 [Example 61]
1 to 10	C[C@H](CO)n1nnnc1-c1cccc(NC(=O)c2cc3c(cn2)CCN(C(=O)OC2CCC2)C3)n1 [Example 157]
10 to 100	CCN(C)C(=O)N1CCc2cc(F)c(C(=O)Nc3cccc(-c4nnnn4C(C)C)n3)cc2C1 [Example 95]
10 to 100	CC(C)n1nnnc1-c1cccc(NC(=O)c2cc3c(cc2F)CCN(S(=O)(=O)CC2CC2)C3)n1 [Example 87]
1 to 10	CC(C)n1cnnc1-c1cccc(NC(=O)c2cc3c(cc2F)CCN(S(=O)(=O)C2CC2)C3)n1 [Example 47]
1 to 10	CC(C)n1cnnc1-c1cccc(NC(=O)c2cc3c(cc2F)CCN(C(=O)N(C)C)C3)n1 [Example 48]
1 to 10	CCC(=O)N1CCc2cnc(C(=O)Nc3cccc(-c4nnnn4[C@H](C)CO)n3)cc2C1 [Example 125]
1 to 10	CC(C)n1cnnc1-c1cccc(NC(=O)c2cc3c(cc2F)CCN(C(=O)N2CCCC2)C3)n1 [Example 44]
1 to 10	CC(C)COC(=O)N1CCc2cnc(C(=O)Nc3cccc(-c4nnnn4[C@H](C)CO)n3)cc2C1 [Example 127]
1 to 10	CCOC(=O)N1CCc2cc(F)c(C(=O)Nc3cccc(-c4nncn4C(C)C)n3)cc2C1 [Example 26]
1 to 10	CCCN1CCc2cnc(C(=O)Nc3cccc(-c4nnnn4[C@H](C)CO)n3)cc2C1 [Example 165]
1 to 10	CC(C)n1cnnc1-c1cccc(NC(=O)c2cc3c(cc2F)CCN(C(=O)OC2CCCC2)C3)n1 [Example 25]
1 to 10	CCN(CC)C(=O)N1CCc2cc(F)c(C(=O)Nc3cccc(-c4nnnn4C(C)C)n3)cc2C1 [Example 94]
